Data: US10065965B2, “Imidazo[1,2-B][1,2,4]triazine derivatives as antiparasitic agents” (GlaxoSmithKline Intellectual Property Development Limited, priority 2015, dated 2018)
≈ marks a conversion by molar mass, not a printed value.

Columns and labels:
[1] = Assay 1 intramacrophage Leishmania donovani assay, THP-1 cell count (cytotoxicity readout); assay type: cell-based; conditions: human, minimum threshold 4.3, read-out: cytotoxicity against THP-1 cells, pEC50 value (converted)
Description: (§1) The intramacrophage Leishmania assay was performed using a modified version of the method described in De Rycker et al. (Antimicrob Agents Chemother. 2013 July; 57(7):2913-22. Comparison of a high-throughput high-content intracellular Leishmania donovani assay with an axenic amastigote assay. De Rycker M, Hallyburton I, Thomas J, Campbell L, Wyllie S, Joshi D, Cameron S, Gilbert I H, Wyatt P G, Frearson J A, Fairlamb A H, Gray D W.). Procedure: 350 nl of compound was pre-dispensed into 384 well sterile intermediary plates. For single point screening, amphotericin B was added to all wells of column 24 as a positive control (final concentration 2 μM) and DMSO to column 23. For potency determinations, ten-point, one in three dilution curves were created with the highest concentration being 50 μM and on each plate a control curve of amphotericin B was included. Controls were as follows: columns 11 and 12: DMSO, columns 23 and 24: amphotericin B (final concentration 2 μM). To the intermediary plates, 35 μl of THP-1 media was added and plates were shaken for >5 min to ensure complete mixing. THP-1 cells (8,000 per well, 50 μl) were plated into black clear-bottom 384 well plates (Corning) in presence of 20 nM PMA. After 20 min at RT, the plates were incubated at 37° C. under 5% CO2 in a humidified incubator for 75 h. The cells were then washed with […] sterile phosphate buffered saline (PBS) supplemented with 1 mM CaCl2, 0.5 mM MgCl2, 0.1% (w/v) bovine serum albumin (PBS-A) and amastigotes were added to all wells at a multiplicity of infection of 5 (40,000 amastigotes per well). After 40 min at RT, plates were returned to the incubator. Amastigotes were incubated in the presence of THP-1 macrophages for 16 h. Any remaining extracellular amastigotes were subsequently removed with an overflow wash of 1 mL PBS-A per well (wash buffer is being aspirated from the top of the well as it is being dispensed) followed by addition of 25 μl of the compound pre-dilutions using a Fluidx Ipette-pro pipetting station. The final dilution of each compound was 200-fold. Plates were incubated for 96 h and then washed (250 μl PBS-A) and fixed (4% (v/v) formaldehyde-PBS, 30 min, RT). After fixation, the wells were washed with 250 μl PBS, stained (10 μg/mL DAPI, 0.4 μg mL-1 HCS Cellmask Deep Red in PBS+0.1% (v/v) Triton X-100, 30 min, RT) and washed with 250 μl PBS. Finally, PBS+0.05% (v/v) thimerosal was added to the wells, the plates were sealed and imaged on a high-content microscope (GE IN Cell 2000) using a 10× objective. Image analysis was carried out with GE IN Cell Analyzer 1000 Workstation using the “Multi Target Analysis” module. Settings for segmentation were as follows: nuclei: minimum area: 142.384 μm2, sensitivity: 81, method: top-hat; cells: characteristic area: 2500 μm2, sensitivity: 60, method: multiscale top-hat; organelles (amastigotes): granule size 1-3, 3 scales, sensitivity: 90, detection in entire cell. For each well, i) THP-1 cell count (cytotoxicity readout) and ii) average number of amastigotes per cell (potency readout) were calculated, both in terms of pEC50 values.

[2] = Assay 4 solubility assay, ChemiLuminescent Nitrogen Detection (CLND); assay type: physicochemical; conditions: phosphate buffered saline, pH 7.4, aqueous buffer, kinetic from dmso stock, pH 7.4 PBS, from 10 mM DMSO stock, 1 h at room temperature
Description: A 10 mM DMSO stock solution of the compound was prepared. Solvents and Buffers Organic solvents of HPLC grade were used. Ultra pure water (Milli-Q grade) was used. Buffers were prepared with ultra pure water and filtered using 0.45μ cameo filters. Aqueous Buffer Solution: Phosphate Buffer Saline (PBS) @ pH 7.4 was prepared from Sigma dry powder packs, P-3813. Each one was diluted to 1 liter with deionised water. The pH was checked before the solution was used II. Procedures. • a) DMSO concentration was measured. DMSO blanks and ondansetron and caffeine standards were added to the plate (column 12, A, B, C, & D for the blanks and E, F, G, & H for the standards). Plates were covered with foil. When the UV and CLND detectors baselines appeared to be stable, the CLND was zeroed. • b) Once DMSO concentration measurements were complete, a filtration plate was prepared from each parent plate by diluting 5 μl of the 10 mM DMSO stock solution to […] with pH7.4 PBS. • c) After the plates were prepared, they were covered with a plate lid and left to incubate for 1 h at room temperature. • d) Sample was filtered using MILLIPORE MultiScreen Solubility (MSSLBPC10) Filtration Plates, to NUNC V well plates. The filter plate was removed and the NUNC plate was sealed with a power seal plate seal. • e) HPLC/CLND instruments were set up and left to equilibrate. Mobile phases (MeOH:H2O 1:1, flow rate: 0.2 ml/min, sensitivity z10, Gain High). The samples were run. • f) The assay curve fit was done by linear regression and solubility values were reported in μM.

Trypanosoma cruzi [3] = experiment: Assay 6 Trypanosoma cruzi intracellular assay (infected H9C2 cells); assay type: cell-based; conditions: H9c2, in Rattus norvegicus, 72 h, infected H9C2 rat cardiomyocytes, read-out: pEC50 value against Trypanosoma cruzi (converted)
Description: Compounds were dispensed into black 384-well assay plates (Greiner) by acoustic dispensing (LabCyte ECHO). For potency determinations, eleven-point, one in three dilution curves were generated, with a top concentration of 50 μM. H9C2 rat cardiomyocytes cells were dispensed in T225 tissue culture flasks and after 4 hours they were infected during 18 hours with T. cruzi trypomastigotes in the same T225 tissue culture flasks at a multiplicity of infection of 1. Next, any remaining free trypomastigotes were washed away with PBS and the infected H9C2 cells were harvested by trypsinisation. The infected H9C2 cells were then plated into 384-well plates containing the compounds to be tested, at 2500 cells per well in DMEM media with 2% FBS, 1% Penicillin/Streptomocin, 2 mM L-Glutamine, 1 mM Na Pyruvate and 25 mM HEPES. After 72 h incubation at 37° C. in presence of 5% CO2, the plates were fixed and stained with 4% formaldehyde and 2 μM Draq5 for 3 hours at room temperature. The plates were imaged on a Perkin Elmer Opera high-content imaging system using a 20× air objective. Images were analysed using the Acapella building blocks system (Perkin Elmer). The image analysis algorithm first identified the H9C2 nuclei followed by demarcation of the cytoplasm and identification of intracellular amastigotes. This algorithm reported mean number of parasites per H9C2 cell, the percentage of infected H9C2 cells and the total number of H9C2 cells.

Leishmania donovani = experiment: Assay 1 intramacrophage Leishmania donovani assay (potency readout); assay type: cell-based; conditions: amastigotes in PMA-treated THP-1 macrophages, 96 h, average number of amastigotes per cell, minimum threshold 4.3, read-out: pEC50 value against Leishmania donovani (converted)
Description: as §1

Trypanosoma cruzi [4] = experiment: Assay 2 Trypanosoma cruzi intracellular assay (infected Vero cells); assay type: cell-based; conditions: 72 h, read-out: pEC50 value against Trypanosoma cruzi (converted)
Description: Compounds were dispensed into black 384-well assay plates (Corning) by acoustic dispensing (LabCyte ECHO). For potency determinations, ten-point one in three dilution curves were generated, with a top concentration of 50 μM. Vero cells were infected overnight with T. cruzi trypomastigotes in T225 tissue culture flasks at a multiplicity of infection of 5. Next, any remaining free trypomastigotes were washed away with serum free MEM media and the infected Vero cells were harvested by trypsinisation. The infected Vero cells were then plated into 384-well plates containing the compounds to be tested, at 4000 cells per well in MEM media with 1% FCS. After 72 h incubation at 37° C. in presence of 5% CO2, the plates were fixed with 4% formaldehyde for 20 minutes at room temperature and stained with 5 μg/ml Hoechst 33342. The plates were imaged on a Perkin Elmer Operetta high-content imaging system using a 20× objective. Images were analysed using the Columbus system (Perkin Elmer). The image analysis algorithm first identified the Vero nuclei followed by demarcation of the cytoplasm and identification of intracellular amastigotes. This algorithm reported mean number of parasites per Vero cell and total number of Vero cells.

Row | Compound | solubility at 1 h [2] | EC50 (Leishmania donovani) | EC50 (Trypanosoma cruzi [4]) | EC50 at 96 h [1] | EC50 (Trypanosoma cruzi [3])
1 | CN1CCN(Cc2ccc(-c3cnc4nc(-c5cc(NC(=O)N6CCCC6)ccc5F)cn4n3)cc2)CC1 [Example 59, N-(4-fluoro-3-(2-(4-((4-methylpiperazin-1-yl)methyl)phenyl)imidazo [1,2-b][1,2,4]triazin-6-yl)phenyl)pyrrolidine-1-carboxamide] | – | – | – | 3980 to 15800 nM | –
2 | O=C(Nc1ccc(F)c(-c2cn3nc(-c4ccc(CN5CCOCC5)cc4)cnc3n2)c1)N1CCCC1 [Example 18, N-(4-fluoro-3-(2-(4-(morpholinomethyl)phenyl)imidazo[1,2-b] [1,2,4]triazin-6-yl)phenyl)pyrrolidine-1-carboxamide] | 1 to 6 µM (≈ 0.502 to 3.01 µg/mL) | – | – | 3980 to 15800 nM | 5.01 to 631 nM
3 | COc1ccc(CNc2cnc3nc(-c4cc(NC(=O)N5CCCC5)ccc4F)cn3n2)cc1 [Example 50, N-(4-fluoro-3-(2-((4-methoxybenzyl)amino)imidazo[1,2-b][1,2,4]triazin-6-yl)phenyl) pyrrolidine-1-carboxamide] | – | – | – | 3980 to 15800 nM | 5.01 to 631 nM
4 | CCOC(=O)Nc1ccc(F)c(-c2cn3nc(N4CCOCC4)cnc3n2)c1 [Example 52, ethyl (4-fluoro-3-(2-morpholinoimidazo [1,2-b][1,2,4]triazin-6-yl)phenyl)carbamate] | – | > 50100 nM | – | – | 5.01 to 631 nM
5 | O=C(Nc1ccc(F)c(-c2cn3nc(-c4cccc(CN5CCOCC5)c4)cnc3n2)c1)N1CCCC1 [Example 19, N-(4-fluoro-3-(2-(3-(morpholinomethyl)phenyl)imidazo[1,2-b] [1,2,4]triazin-6-yl)phenyl)pyrrolidine-1-carboxamide] | 1 to 6 µM (≈ 0.502 to 3.01 µg/mL) | – | – | 3980 to 15800 nM | 5.01 to 631 nM
6 | C[C@@H]1CN(c2cnc3nc(-c4cc(NC(=O)N5CCCC5)ccc4F)cn3n2)C[C@H](C)O1 (single isomer, unassigned) [Example 6] | 10 to 83 µM (≈ 4.39 to 36.5 µg/mL) | – | 20 to 251 nM | – | 5.01 to 631 nM
7 | O=C(Nc1ccc(F)c(-c2cn3nc(N4CCCCC4)cnc3n2)c1)N1CCCC1 [Example 4, N-(4-fluoro-3-(2-(piperidin-1-yl)imidazo[1,2-b][1,2,4]triazin-6-yl)phenyl)pyrrolidine-1-carboxamide] | 10 to 83 µM (≈ 4.09 to 34 µg/mL) | – | 20 to 251 nM | – | 5.01 to 631 nM
8 | O=C(Nc1ccc(F)c(-c2cn3nc(-c4ccc(O)cc4)cnc3n2)c1)N1CCCC1 [Example 51, N-(4-fluoro-3-(2-(4-hydroxyphenyl)imidazo [1,2-b][1,2,4]triazin-6-yl)phenyl)pyrrolidine-1-carboxamide] | – | – | – | 3980 to 15800 nM | 5.01 to 631 nM
9 | Cc1nn(C)cc1S(=O)(=O)Nc1ccc(F)c(-c2cn3nc(N4CCOCC4)cnc3n2)c1 [Example 34, N-(4-fluoro-3-(2-morpholinoimidazo [1,2-b][1,2,4]triazin-6-yl)phenyl)-1,3-dimethyl-1H-pyrazole-4-sulfonamide] | – | > 50100 nM | 25100 nM | – | 10000 to 39800 nM
10 | O=C(Nc1ccc(Cl)c(-c2cn3nc(N4CCOCC4)cnc3n2)c1)N1CCCC1 [Example 43, N-(4-chloro-3-(2-morpholinoimidazo[1,2-b][1,2,4]triazin-6-yl)phenyl)pyrrolidine-1-carboxamide] | 10 to 83 µM (≈ 4.28 to 35.5 µg/mL) | – | – | – | 5.01 to 631 nM

Further lines, with some results ahead:

Row | solubility at 1 h [2] | EC50 (Leishmania donovani) | EC50 (Trypanosoma cruzi [4]) | Compound | EC50 at 96 h [1] | EC50 (Trypanosoma cruzi [3])
11 | 10 to 83 µM (≈ 4.25 to 35.3 µg/mL) | – | 20 to 251 nM | CC1CN(c2cnc3nc(-c4cc(NC(=O)N5CCCC5)ccc4F)cn3n2)CCO1 (racemic) [Example 5, (+,−)-N-(4-fluoro-3-(2-(2-methylmorpholino)imidazo[1,2-b][1,2,4]triazin-6-yl)phenyl)pyrrolidine-1-carboxamide] | – | 5.01 to 631 nM
12 | – | – | 20 to 251 nM | O=C(Nc1ccc(F)c(-c2cn3nccnc3n2)c1)N1CCCC1 [Example 8, N-(4-fluoro-3-(imidazo[1,2-b][1,2,4]triazin-6-yl)phenyl)pyrrolidine-1-carboxamide] | – | –
13 | 10 to 83 µM (≈ 4.02 to 33.4 µg/mL) | – | 20 to 251 nM | O=C(Nc1ccc(F)c(-c2cn3nc(-c4ccccc4)cnc3n2)c1)N1CCCC1 [Example 2, N-(4-fluoro-3-(2-phenylimidazo[1,2-b][1,2,4]triazin-6-yl)phenyl)pyrrolidine-1-carboxamide] | – | 5.01 to 631 nM
14 | 10 to 83 µM (≈ 3.95 to 32.8 µg/mL) | – | 20 to 251 nM | O=C(Nc1ccc(F)c(-c2cn3nc(N4CCCC4)cnc3n2)c1)N1CCCC1 [Example 3, N-(4-fluoro-3-(2-(pyrrolidin-1-yl)imidazo[1,2-b][1,2,4]triazin-6-yl)phenyl)pyrrolidine-1-carboxamide] | – | 5.01 to 631 nM
15 | 10 to 83 µM (≈ 4.08 to 33.9 µg/mL) | – | – | O=C(Nc1ccc(F)c(-c2cn3nc(C4=CCOCC4)cnc3n2)c1)N1CCCC1 [Example 12, N-(3-(2-(3,6-dihydro-2H-pyran-4-yl)imidazo[1,2-b] [1,2,4]triazin-6-yl)-4-fluorophenyl)pyrrolidine-1-carboxamide] | – | 5.01 to 631 nM
